The conditions of this data set: pH 6.0, approx. 20-30 mg/mL, stirred at ambient conditions for minimum 16 hours, precipitate analysed by XRPD.

Read-outs that look alike come from different tables or passages of the source.

Description: Equilibrium solubility experiments were conducted by mixing Compound A and the solution of interest at a concentration of approximately 20-30 mg/mL (Table 1). The solution of interest contained either 50 mM L-histidine or phosphate buffer (pH: 5.8<x<6.3). Additional Compound A was added until a cloudy solution was maintained. The samples were stirred at ambient conditions for a minimum of 16 hours. At the conclusion of the solubility measurements, solutions were clarified by centrifugation. The wet precipitated material was transferred to a 96-well transmission XRPD sample plate and allowed to dry to room temperature prior to XRPD analysis.
X-ray powder diffraction patterns for the solid phases of Compound A were generated on a Philips Analytical X'Pert PRO X-ray Diffraction System with a high throughput stage. A Cu K-Alpha radiation source was used. […] The experiments were analyzed at ambient conditions.

Take `Nc1nc2c(ncn2[C@@H]2O[C@@H]3CO[P@@](O)(=S)O[C@H]4[C@H](F)[C@H](n5cnc6c(N)ncnc65)O[C@@H]4CO[P@@](O)(=S)O[C@@H]2[C@@H]3F)c(=O)[nH]1.[Na]` [Crystalline, mono-sodium salt, Monosodium salt of 2-amino-9-[(2R,5R,7R,8S,10R,12aR,14R,15S,15aR,16R)-14-(6-amino-9H-purin-9-yl)-15,16-difluoro-2,10-dihydroxy-2,10-disulfidooctahydro-12H-5,8-methanofuro [3,2-1][1,3,6,9,11,2,10]pentaoxa-diphosphacyclotetradecin-7-yl]-1,9-dihydro-6H-purin-6-one]: the “Compound A Terminal Phase” value is “Form 1” (50 mM L-histidine buffer) and “Crystalline mono-” (50 mM phosphate buffer).

The values are drawn from US20240218009A1, “NOVEL FORMS OF CYCLIC DINUCLEOTIDE COMPOUNDS” (Merck Sharp & Dohme LLC, priority 2021, published 2024).
